# Assay: Investigations of solubility of IPN in different solvents
# Assay type: physicochemical
# Conditions: for solubility of IPN in NMP: solvent NMP; for solubility of IPN in mesitylene: solvent mesitylene; for solubility of IPN in pseudocumene: solvent pseudocumene
# Method: Investigations of Solubility of IPN in Different Solvents
# At 60° C., the solubility of IPN in mesitylene or pseudocumene is in each case below 10% by weight.
smiles,measurement,setting,value
"N#Cc1cccc(C#N)c1 [IPN, 1,3-dicyanobenzene]",solubility of IPN in NMP,60° C.,approx. 26 % by weight
same,solubility of IPN in NMP,90° C.,approx. 41 % by weight
same,solubility of IPN in mesitylene,60° C.,below 10 % by weight
same,solubility of IPN in mesitylene,90° C.,12 % by weight
same,solubility of IPN in pseudocumene,60° C.,below 10 % by weight
same,solubility of IPN in pseudocumene,90° C.,20 % by weight

# Reference: patent publication US7323598B2, “Preparation of xylylenediamine (XDA)” (BASF Aktiengesellschaft, priority 2003, dated 2008)
